PubChem BioAssay (NCI)
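Method: 48-hour compound exposure of cells in 96-well plates, five concentrations, linear interpolation of endpoints. GI50 marks 50% less growth. TGI: total growth inhibition.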

What was measured:
Assay in all cases: NCI anticancer screen, dose series, 48 h
SNB-75 CNS = test system: SNB-75 CNS
COLO 205 colon = test system: COLO 205 colon
IGROV1 ovarian = test system: IGROV1 ovarian
A549 NSCLC = test system: A549 NSCLC
U251 CNS = test system: U251 CNS
SNB-19 CNS = test system: SNB-19 CNS
SW-620 colon = test system: SW-620 colon
TK-10 renal = test system: TK-10 renal
NCI/ADR-RES ovarian = test system: NCI/ADR-RES ovarian
M14 melanoma = test system: M14 melanoma

SMILES	GI50 (SNB-75 CNS)	TGI (SNB-75 CNS)	GI50 (COLO 205 colon)	TGI (COLO 205 colon)	GI50 (IGROV1 ovarian)	TGI (IGROV1 ovarian)	GI50 (A549 NSCLC)	TGI (A549 NSCLC)	GI50 (U251 CNS)	TGI (U251 CNS)	GI50 (SNB-19 CNS)	TGI (SNB-19 CNS)	GI50 (SW-620 colon)	TGI (SW-620 colon)	GI50 (TK-10 renal)	TGI (TK-10 renal)	GI50 (NCI/ADR-RES ovarian)	TGI (NCI/ADR-RES ovarian)	GI50 (M14 melanoma)	TGI (M14 melanoma)
Clc1ccc(Nc2nc(Nc3ccccc3)nc(Nc3ccc(-c4cc(-c5ccc(Cl)cc5)on4)cc3)n2)cc1	21.6 µM	> 100 µM	11.9 µM	32.5 µM	12.7 µM	> 100 µM	19.2 µM	> 100 µM	17.7 µM	> 100 µM	45.6 µM	> 100 µM	26.4 µM	> 100 µM	19.2 µM	> 100 µM	21.1 µM	> 100 µM	–	–
N#Cc1ccccc1C#C/C=C\C#Cc1ccccc1N	6.13 µM	> 25.3 µM	4.8 µM	> 100 µM	–	–	6.95 µM	> 100 µM	4.16 µM	> 42.5 µM	7.17 µM	> 100 µM	3.76 µM	> 100 µM	5.02 µM	> 49.3 µM	2.44 µM	29.2 µM	0.243 µM	11.3 µM
CC(=O)Nc1ccc(C(=O)NN2C(=O)C(Cl)C2c2cccc([N+](=O)[O-])c2)cc1 (stereo unspecified)	–	> 100 µM	–	> 100 µM	–	> 100 µM	–	> 100 µM	–	> 100 µM	–	> 100 µM	–	> 100 µM	–	> 100 µM	–	–	–	–
O=S(=O)(O)c1ccc2c(N=Nc3ccc(N=Nc4ccccc4)cc3)c(O)c(S(=O)(=O)O)cc2c1	–	–	–	> 100 µM	–	> 100 µM	–	> 100 µM	–	> 100 µM	–	> 100 µM	–	> 100 µM	–	> 100 µM	–	> 100 µM	–	> 100 µM
Nc1cc(S(=O)(=O)O)cc2ccc(S(=O)(=O)O)cc12	–	> 100 µM	–	> 100 µM	–	> 100 µM	–	> 100 µM	–	> 100 µM	–	> 100 µM	–	> 100 µM	–	> 100 µM	–	> 100 µM	–	> 100 µM
O=C(Nc1ccc(-n2ccc3c(NC(=O)c4ccccc4)nccc32)cc1)Nc1cccc(C(F)(F)F)c1	7.67 µM	23.3 µM	6.19 µM	19.6 µM	10 µM	30.9 µM	3.25 µM	10.9 µM	2.04 µM	10.8 µM	11.1 µM	26.8 µM	4.96 µM	18.9 µM	3.87 µM	18.8 µM	10.9 µM	28.7 µM	3.83 µM	15.7 µM
C[N+]1(CCC(=O)c2ccccc2)CCC2CCC(C2)C1 (stereo unspecified)	–	> 100 µM	–	> 100 µM	–	> 100 µM	–	> 100 µM	–	> 100 µM	–	> 100 µM	–	> 100 µM	–	> 100 µM	–	> 100 µM	–	> 100 µM
CC1=CC(O)C(C(O)(C(F)(F)F)C(F)(F)F)C(C)(C)C1 (stereo unspecified)	–	> 10 µM	–	> 10 µM	–	0.986 µM	–	> 10 µM	–	> 10 µM	–	> 10 µM	–	> 10 µM	–	> 10 µM	–	> 10 µM	–	–
Cc1oc(N)c(S(=O)(=O)c2cc3ccccc3n(O)c2=N)c1C	–	> 100 µM	–	> 100 µM	–	> 100 µM	–	> 100 µM	–	> 100 µM	–	> 100 µM	–	> 100 µM	–	> 100 µM	–	> 100 µM	–	> 100 µM
CC1=C[C@@H](C)C[C@]2(C)CC[C@H](O2)[C@]23CC[C@](CO)(C[C@H](O2)[C@@H]2O[C@@](C)(CC2=O)[C@@H](O)[C@H]2CC[C@@]4(CCC[C@@H](O4)[C@H](C)C(=O)O[C@H]4C[C@H]([C@]5(O)OCC[C@H](C)[C@@H]5O)O[C@H]4C=C1)O2)O3	–	0.00179 µM	–	0.00377 µM	–	0.0561 µM	–	> 10 µM	–	0.438 µM	–	–	–	> 10 µM	–	0.0714 µM	–	> 10 µM	–	> 10 µM
CC1C(=O)c2cc3c(cc2CCN(C)Cc2c1ccc1c2OCO1)OCO3 (stereo unspecified)	> 75 µg/mL	> 75 µg/mL	26.2 µg/mL	> 75 µg/mL	> 75 µg/mL	> 75 µg/mL	> 75 µg/mL	> 75 µg/mL	67.5 µg/mL	> 75 µg/mL	> 75 µg/mL	> 75 µg/mL	> 75 µg/mL	> 75 µg/mL	> 75 µg/mL	> 75 µg/mL	58.3 µg/mL	> 75 µg/mL	43.6 µg/mL	> 75 µg/mL
N=c1ccc2nc(N)nn(O)c-2c1	–	> 100 µM	–	> 100 µM	–	> 100 µM	–	> 100 µM	–	> 100 µM	–	> 100 µM	–	> 100 µM	–	> 100 µM	–	> 100 µM	–	> 100 µM
CC1(C(=O)O)C[C@](C)(C(=O)OCc2ccccc2)C[C@](C)(C(=O)OCc2ccccc2)C1 (stereo partly specified)	–	79.7 µM	–	33.8 µM	–	52.7 µM	–	> 100 µM	–	–	–	> 100 µM	–	> 100 µM	–	> 100 µM	–	> 100 µM	–	> 100 µM
CCOC(=O)c1c(-c2cccc(Cl)c2)c(C(=O)OC)c(C)c2sc(C=O)nc12	–	> 100 µM	–	34.4 µM	–	32.9 µM	–	> 100 µM	–	32.2 µM	–	> 100 µM	–	> 100 µM	–	50 µM	–	68.5 µM	–	31.4 µM
OCCCSCCO	–	> 100 µM	–	> 100 µM	–	> 100 µM	–	> 100 µM	–	> 100 µM	–	> 100 µM	–	> 100 µM	–	> 100 µM	–	> 100 µM	–	> 100 µM
Cc1ccc2nc(-c3ccc(NC(=O)c4ccc(N)cc4)c(S(=O)(=O)O)c3)sc2c1	–	> 100 µM	–	> 100 µM	–	> 100 µM	–	> 100 µM	–	> 100 µM	–	> 100 µM	–	> 100 µM	–	> 100 µM	–	> 100 µM	–	> 100 µM
Cc1cc2ccc(OC(=O)c3ccc(N=C(N)N)cc3)cc2oc1=O	–	71.9 µM	–	55.9 µM	–	> 100 µM	–	> 100 µM	–	45.6 µM	–	54.8 µM	–	78.5 µM	–	49.8 µM	–	> 100 µM	–	97.7 µM
O=C(CC(c1ccccc1)C1C(=O)NC(=S)NC1=O)c1ccc([N+](=O)[O-])cc1 (stereo unspecified)	–	> 100 µM	–	> 100 µM	–	> 100 µM	–	> 100 µM	–	> 100 µM	–	> 100 µM	–	> 100 µM	–	> 100 µM	–	> 100 µM	–	> 100 µM
CS(C)(=O)=Nn1c(=O)n2n(c1=O)C1c3ccccc3C2c2ccccc21	–	–	–	> 100 µM	–	> 100 µM	–	> 100 µM	–	> 100 µM	–	> 100 µM	–	> 100 µM	–	> 100 µM	–	> 100 µM	–	> 100 µM
CCN1CCN(c2nc3ccccc3nc2C(=O)c2ccc(OC)c(OC)c2)CC1	–	30.1 µM	–	2.91 µM	–	32.9 µM	–	28.3 µM	–	30.2 µM	–	88.2 µM	–	> 100 µM	–	87.5 µM	–	3.39 µM	–	31.3 µM
Cc1ccc(OCC2=NC3S/C(=C/c4ccc([N+](=O)[O-])o4)C(=O)N3N2)cc1 (stereo unspecified)	–	30 µM	–	11.6 µM	–	22.5 µM	–	38.9 µM	–	29.5 µM	–	32.2 µM	–	15 µM	–	30.1 µM	–	33.2 µM	–	23.6 µM
COC(=O)C1CC23C4=C(CCC41)CCC1CN4CC(C)C(CC(OC(C)=O)C12COC(C)=O)C43O (stereo unspecified)	–	> 100 µM	–	> 100 µM	–	> 100 µM	–	> 100 µM	–	> 100 µM	–	> 100 µM	–	> 100 µM	–	> 100 µM	–	> 100 µM	–	> 100 µM
Cc1cc(C)c2c(=O)n(CC(O)CN3CCN(CCOCCO)CC3)sc2n1 (stereo unspecified)	–	5.78 µM	–	34.1 µM	–	> 100 µM	–	> 100 µM	–	36.3 µM	–	> 100 µM	–	> 100 µM	–	31.3 µM	–	> 100 µM	–	33.5 µM
COc1ccc(-c2nn(-c3ccc(NC(=O)c4cc(Cl)cc(Cl)c4)cc3)cc2-c2ccncc2)cc1Cl	–	–	> 100 µM	> 100 µM	> 100 µM	> 100 µM	> 100 µM	> 100 µM	1.84 µM	> 100 µM	> 100 µM	> 100 µM	> 100 µM	> 100 µM	6.18 µM	> 100 µM	> 100 µM	> 100 µM	2.4 µM	9.08 µM
O=C(Cc1csc2nc(-c3ccc(Cl)cc3)cn12)N/N=C/c1ccccc1O	4.32 µM	> 100 µM	2.93 µM	> 100 µM	3.05 µM	> 100 µM	5.18 µM	> 100 µM	1.77 µM	35.4 µM	12.3 µM	> 100 µM	6.81 µM	> 100 µM	–	–	2.6 µM	81.8 µM	–	–
COc1cccc(/C=N/[N-]C(N)=O)c1[O-].[Ni+2].[OH3+]	–	1.57 µM	–	0.291 µM	–	0.811 µM	–	2.27 µM	–	0.816 µM	–	1.99 µM	0.135 µM	0.371 µM	–	2.74 µM	–	–	–	2.08 µM
COc1cc(C2c3cc4c(cc3[C@@H](Nc3ccc(Oc5ccccc5)cc3)C3COC(=O)[C@H]23)OCO4)cc(OC)c1O (stereo partly specified)	–	96.9 µM	–	13 µM	–	> 100 µM	–	> 39.5 µM	–	> 27.9 µM	–	> 100 µM	–	> 100 µM	–	–	–	> 100 µM	–	–
O=C(/C=C1\N=C(c2ccccc2)N(c2nc3c(Cl)cc(Cl)cc3s2)C1=O)/C=C/c1ccccc1	–	> 100 µM	–	> 100 µM	–	> 100 µM	–	> 100 µM	–	> 100 µM	–	> 100 µM	–	> 100 µM	–	> 100 µM	–	> 100 µM	–	> 100 µM
